Laboratory results taken from patent publication US20090176817A1, “Method of Treatment of Diarrhea-Predominant Irritable Bowel Syndrome in a Subject” (priority 2005, published 2009).

Tested on: diarrhea-predominant IBS subjects
Experiment: Study S241.3.011: weekly diary questions on adequate relief
Format: in vivo, human
Conditions: for Overall responder rate, adequate relief of IBS symptoms / Overall responder rate, adequate relief of abdominal pain/discomfort / Overall responder rate, adequate relief of abnormal bowel habits: observed case
Description: Study S241.3.011 was a Phase III, double-blind, placebo-controlled, randomized, multinational study to investigate the safety and efficacy of 2 mg TID of cilansetron for a period of 12 weeks followed by a rerandomized, placebo-controlled four-week treatment period, in diarrhea-predominant IBS subjects. The study was conducted in six countries including the US. A total of 2115 subjects consented to participate, and 770 subjects were randomized. A total of 746 subjects were analyzed for efficacy and 755 subjects were analyzed for safety. Diagnosis and main criteria for inclusion were IBS subjects satisfying the Rome I criteria (1992); the diarrhea predominant sub-population of the Rome II criteria; and a minimum abdominal pain/discomfort, stool frequency and consistency determined during the run-in period. Subjects were treated with cilansetron 2 mg tablets given orally TID or matching placebo tablets given orally TID for 12 weeks followed by a rerandomized, placebo-controlled four-week treatment period.
The primary efficacy parameter was the number of months that a subject was a responder for IBS symptoms (abdominal pain, abdominal discomfort, abnormal bowel habits) over the 12-week treatment period. A responder for a month (monthly responder) was defined as a subject who answered the weekly question with “yes” at least twice for that month. The two main secondary efficacy parameters were the monthly responder rates based on the “adequate relief” questions regarding abdominal pain/discomfort and abnormal bowel habits during the 12-week treatment period. The overall response rate and responder rate for the weekly diary questions on adequate relief at each month and all months, the adequate relief rate, the number of subjects with adequate relief by week, daily diary questions, IBS-QOL scores, and the interruption of activities were also assessed. Safety was evaluated by physical examination, ECG, vital signs, laboratory evaluations, concomitant medications, and AEs.
Subjects who were initially randomized to the cilansetron 2 mg TID group and rerandomized to placebo, will be referred to as the C/P treatment group; subjects initially randomized to the placebo group and rerandomized to placebo will be referred to as the P/P treatment group; the P/C and C/C treatment group nomenclature follow the same principle. Of the 591 subjects who completed the three-month treatment period, 576 subjects were rerandomized and thus divided into the following treatment groups: 150 subjects in the C/C treatment group, 140 subjects in the C/P treatment group, 136 subjects in the P/C treatment group, and 150 subjects in the P/P treatment group. Of the 576 subjects rerandomized, a higher percentage of subjects in the C/C treatment group (99%) completed the study compared with the C/P (95%), P/C (93%), and the P/P (95%) treatment groups.
Studies S24 1.3.OO6, S24 1.3.0 1 1, and S24 1.3.009 used the following efficacy measurements: • The subjects answered the following three questions with “yes” or “no” using a phone diary at the end of each week: • a) During the last week, did you experience adequate relief of your IBS symptoms, such as abdominal pain, abdominal discomfort, abnormal bowel habits? • b) During the last week, did you experience adequate relief of your abdominal pain and/or discomfort? • c) During the last week, did you experience adequate relief of your abnormal bowel habits? • The subjects rated the following symptoms using the phone diary at the end of each day: • abdominal pain/discomfort (five-point scale); • stool consistency (seven-point Bristol Stool Scale); • stool frequency (number of bowel movements each day); • urgency (five-point scale); • straining (yes or no); • feeling of incomplete defecation (yes or no); • bloating or feeling of abdominal distension (five-point scale). • In Studies S241 A006 and S241.3.009, subjects completed the IBS-QOL Survey at Baseline (Day 1) and at the end of treatment. […]

[1] = Female subjects, three-month treatment period, monthly LOCF, ITT, 2 mg TID
[2] = Female subjects, three-month treatment period, ITT, 2 mg TID
[3] = Male subjects, three-month treatment period, monthly LOCF, ITT, 2 mg TID
[4] = Male subjects, three-month treatment period, ITT, 2 mg TID
[5] = RR Group C/C (cilansetron 2 mg TID, rerandomized to cilansetron)
[6] = RR Group C/P (cilansetron 2 mg TID, rerandomized to placebo)

Cc1nccn1C[C@H]1CCc2c(c3cccc4c3n2CCC4)C1=O [Cilansetron, (R)-(−)-4,5,6,8,9,10-hexahydro-10-[(2-methyl-1H-imidazol-1-yl)methyl]-11H-pyrido-[3,2,1-jk]-carbazol-11-one]
Number of months a subject was a responder: Three months (Abnormal bowel habits) [1]: 101 (39) n (%) | Number of months a subject was a responder: Three months (IBS symptoms) [1]: 96 (37) n (%) | Number of months a subject was a responder: Two months (Abdominal pain/discomfort) [1]: 57 (22) n (%) | Number of months a subject was a responder: Two months (Abnormal bowel habits) [1]: 48 (18) n (%) | Number of months a subject was a responder: Two months (IBS symptoms) [1]: 52 (20) n (%) | Number of months a subject was a responder: Zero months (Abdominal pain/discomfort) [1]: 74 (28) n (%) | Number of months a subject was a responder: Zero months (Abnormal bowel habits) [1]: 79 (30) n (%) | Number of months a subject was a responder: Zero months (IBS symptoms) [1]: 79 (30) n (%) | Overall responder rate, adequate relief of IBS symptoms [2]: 138 (53) n (%) | Overall responder rate, adequate relief of abdominal pain/discomfort [2]: 151 (58) n (%) | Overall responder rate, adequate relief of abnormal bowel habits [2]: 140 (53) n (%) | Number of months a subject was a responder: One month (Abdominal pain/discomfort) [3]: 15 (13) n (%) | Number of months a subject was a responder: One month (Abnormal bowel habits) [3]: 16 (14) n (%) | Number of months a subject was a responder: One month (IBS symptoms) [3]: 19 (17) n (%) | Number of months a subject was a responder: Three months (Abdominal pain/discomfort) [3]: 58 (50) n (%) | Number of months a subject was a responder: Three months (Abnormal bowel habits) [3]: 48 (42) n (%) | Number of months a subject was a responder: Three months (IBS symptoms) [3]: 52 (45) n (%) | Number of months a subject was a responder: Two months (Abdominal pain/discomfort) [3]: 15 (13) n (%) | Number of months a subject was a responder: Two months (Abnormal bowel habits) [3]: 18 (16) n (%) | Number of months a subject was a responder: Two months (IBS symptoms) [3]: 18 (16) n (%) | Number of months a subject was a responder: Zero months (Abdominal pain/discomfort) [3]: 27 (23) n (%) | Number of months a subject was a responder: Zero months (Abnormal bowel habits) [3]: 33 (29) n (%) | Number of months a subject was a responder: Zero months (IBS symptoms) [3]: 26 (23) n (%) | Overall responder rate, adequate relief of IBS symptoms [4]: 68 (59) n (%) | Overall responder rate, adequate relief of abdominal pain/discomfort [4]: 70 (61) n (%) | Overall responder rate, adequate relief of abnormal bowel habits [4]: 63 (55) n (%) | Responder rate, abdominal pain/discomfort (Peru): 69% | Responder rate, abnormal bowel habits (Peru): 75% | Δ Month 4 vs Month 3, responder rate, Adequate Relief of Abdominal Pain/Discomfort (RR Group C/C): 0% | Δ Month 4 vs Month 3, responder rate, Adequate Relief of Abnormal Bowel Habits (RR Group C/C): +2% | Δ Month 4 vs Month 3, responder rate, Adequate Relief of IBS Symptoms (RR Group C/C): +3% | Monthly responder rate, Adequate Relief of Abdominal Pain/Discomfort, Month 3 [5]: 70% | Monthly responder rate, Adequate Relief of Abdominal Pain/Discomfort, Month 4 [5]: 70% | Monthly responder rate, Adequate Relief of Abnormal Bowel Habits, Month 3 [5]: 68% | Monthly responder rate, Adequate Relief of Abnormal Bowel Habits, Month 4 [5]: 70% | Monthly responder rate, Adequate Relief of IBS Symptoms, Month 3 [5]: 66% | Monthly responder rate, Adequate Relief of IBS Symptoms, Month 4 [5]: 69% | Δ Month 4 vs Month 3, responder rate, Adequate Relief of Abdominal Pain/Discomfort (RR Group C/P): −16% | Δ Month 4 vs Month 3, responder rate, Adequate Relief of Abnormal Bowel Habits (RR Group C/P): −18% | Δ Month 4 vs Month 3, responder rate, Adequate Relief of IBS Symptoms (RR Group C/P): −22% | Monthly responder rate, Adequate Relief of Abdominal Pain/Discomfort, Month 3 [6]: 66% | Monthly responder rate, Adequate Relief of Abdominal Pain/Discomfort, Month 4 [6]: 50% | Monthly responder rate, Adequate Relief of Abnormal Bowel Habits, Month 3 [6]: 60% | Monthly responder rate, Adequate Relief of Abnormal Bowel Habits, Month 4 [6]: 42% | Monthly responder rate, Adequate Relief of IBS Symptoms, Month 3 [6]: 61% | Monthly responder rate, Adequate Relief of IBS Symptoms, Month 4 [6]: 39% | Overall responder rate, IBS symptoms (entire four months, C/C group): 66% | Overall responder rate, abdominal pain/discomfort (entire four months, C/C group): 70% | Overall responder rate, abnormal bowel habits (entire four months, C/C group): 69% | Overall responder rate, IBS symptoms (females): 53% | Overall responder rate, abdominal pain/discomfort (females): 58% | Overall responder rate, abnormal bowel habits (females): 53% | Overall responder rate, IBS symptoms (males): 59% | Overall responder rate, abdominal pain/discomfort (males): 61% | Overall responder rate, abnormal bowel habits (males): 55% | Overall responder rate, IBS symptoms (non-Caucasians): 66% | Overall responder rate, abdominal pain/discomfort (non-Caucasians): 66% | Overall responder rate, abnormal bowel habits (non-Caucasians): 70%
